Laboratory results published in patent publication US9572786B2, “Use of capsiate or dihydrocapsidate” (Catholic University Industry Academy Cooperation Foundation, priority 2007, dated 2017).

Columns and labels:
P38 [1] = experiment: MAPK signaling in mouse skin tissue, Western blotting: P38; format: in vivo; conditions: hairless mouse; UV+CPT vs UV with acetone only
Description: In order to investigate the intracellular mechanism (signaling) related with the inhibition of COX-2 expression by capsiate, Western blotting was carried out for MAPK signaling-related proteins (ERK, p-ERK, p38, p-p38 and JNK, p-JNK) as in Example 2-2, using proteins isolated from the mouse skin tissue.

p38 [2] = experiment: MAPK signaling after UV, Western blotting: p38; format: cell-based, human; conditions: HaCaT cells; 10, 25, 50 μM; 30 minutes after UV irradiation
Description: Western blotting was performed in the same manner as in Example 2-1 in order to identify the factor that affects the COX-2 expression regulated by capsiate, except for treating the cells with capsiate at different concentrations (10 μM, 25 μM and 50 μM) prior to UV irradiation, and using rabbit anti-ERK antibody, rabbit anti-p-ERK antibody, rabbit anti-p38 antibody, rabbit anti-p-p38 antibody, rabbit anti-JNK antibody and rabbit anti-p-JNK antibody (cell signaling), and anti-rabbit IgG-HRP conjugation antibody (Zymed) as the secondary antibody, 30 minutes after UV irradiation.

Sprague dawley (SD) rats = experiment: Retinal vascular permeability in streptozotocin induced diabetic retinopathy; format: in vivo, rat; conditions: intravitreally injected 1-week after streptozotocin, observed at 3 weeks with dextran FITC
Description: Diabetes are induced by performing intraperitoneal injection of 60 mg/kg of streptozotocin (Sigma, St Louis, Mo., USA) into 8-week-old male Sprague dawley (SD) rats (250 g). 3 days later, serum glucose level was measured and rats having serum glucose level of […] and more are selected and used in experiments. Capsiate or capsaicin was intravitreally injected 1-week after the injection of streptozotocin, respectively. 3 weeks after the injection of streptozotocin, 0.5 ml of dextran FITC (25 mg/ml, MW 40K, Sigma, St Louis, Mo., USA) was injected through tail vein of tested rats to imaging retinal vascular pattern. Retinal tissues of the rats are isolated and observed by fluorescent microscopy (Olympus, Tokyo, Japan). The increase of retinal vascular permeability is observed in nonproliferative diabetic retinopathy, proliferative diabetic retinopathy and diabetic macular edema and result from cracks in vascular vessel due to breakdown of blood-retinal barrier (BRB).

ICAM-1 (CD54) = experiment: ICAM-1 expression in mouse skin, Western blotting; format: in vivo; conditions: mouse skin tissue; test group B
Description: (§1) In order to investigate the effect of capsiate on various intracellular angiogenesis-related expression factors, the inhibition effect of capsiate on angiogenesis factors induced by UV was evaluated using the mouse tissue of Example 5.
Western blotting was carried out in the same manner as Example 6 using the proteins isolated from the mouse skin tissue of each test group in Example 6, in order to investigate the level of expression of ICAM-1 (CD54), which is involved in cell infiltration, cell migration, angiogenesis, etc. in inflammatory response. In order to investigate the level of ICAM-1 expression, mouse anti-ICAM-1 antibody (Santa Cruz, USA) and HRP-conjugated secondary antibody (1:10,000, Zymed) were used.

MMP-2 = MMP-2 mRNA in mouse skin, RT-PCR; format: in vivo; conditions: mouse tissue of Example 5; normalized using GAPDH
Description: mRNA was extracted from the mouse tissue of each test group of Example 5 and the level of expression thereof was evaluated in order to investigate the effect of capsiate on the expression of MMP-2 and MMP-9 induced by angiogenesis and immune response.
For RNA extraction from the tissue, each mouse tissue was subjected to skin biopsy, quickly frozen in liquid nitrogen and finely ground using a mortar. RNA was extracted from the mouse tissue using Trizol (Invitrogen, USA). PCR (PTC-225 Peltier thermal cycler, MJ Research, USA) was carried out using the RNA as template and using a commercial kit (reverse transcription system, Qiagen, USA). As a result, cDNA for each test group was prepared.
RT-PCR (Rotor Gene 6 series, Corbett Research, Australia) was carried out using thus prepared cDNA as template and using MMP-2 and MMP-9 primers (Qiagen, USA). The level of mRNA expression for MMP was normalized using GAPDH. The level of expression was compared with that of the non-treated group, which was treated with acetone only.

IL-8 = experiment: UV-induced pro-inflammatory cytokine mRNA, RT-PCR: IL-8; format: cell-based, human; conditions: HaCaT cells; 10, 25, 50 μM; UV 100 J/m^2; 4 hours
Description: (§2) 1×10^6 HaCaT cells were placed on a 100 mm Petri dish and cultured for 24 hours in DMEM containing 10% FBS. Subsequently, the cells were cultured for 24 hours in DMEM containing 1% FBS until starvation. Then, after treating with capsiate at different concentrations (10 μM, 25 μM, 50 μM) for 30 minutes, followed by washing 3 times with PBS, UV was irradiated at an intensity of 100 J/m^2 to induce the production of cytokines. Immediately after the UV irradiation, the cells were washed again with PBS and further cultured for 4 hours in DMEM containing 1% FBS, which was treated with capsiate at the same concentration as in the pre-treatment.
(§3) Then, the degree of mRNA expression for IL-6, IL-8 and TNF-α induced mainly in the skin by the UV irradiation was evaluated by RT-PCR in order to measure the inhibition effect against the pro-inflammatory cytokines.
(§4) RNAs were extracted from the cells of each test group using Trizol (Invitrogen, USA) and used as template for PCR (PTC-225 Peltier thermal cycler, MJ Research, USA) to prepare cDNAs for each test group. Using the resultant cDNAs as template, the degree of mRNA expression for IL-6, IL-8 and TNF-α was measured by RT-PCR (Roter Gene 6000 series, Corbett Research, Australia) using commercial IL-6, IL-8 and TNF-α primers. […]

PECAM-1 (CD31) = experiment: PECAM-1 expression in mouse skin, immunohistochemical staining; format: in vivo; conditions: mouse skin tissue of Example 5; treated prior to UV irradiation
Description: as §1
To investigate this effect, the paraffin-embedded tissue prepared as in Example 6 was processed in the same manner as Example 6, treated with PECAM-1 antibody (1:100, BD Pharmingen, USA) on a slide, treated with biotinylated secondary antibody (DAKO code K0675; DAKO Corp., USA) for 30 minutes, and washed 3 times. After treatment with streptavidin-peroxidase (DAKO code K0675, DAKO Corp., USA) for 30 minutes, followed by washing 3 times with PBS, the tissue was stained using DAB (DAKO Corp., USA) for confirmation of the level of PECAM-1 expression.

IL-6 = experiment: UV-induced pro-inflammatory cytokine mRNA, RT-PCR: IL-6; format: cell-based, human; conditions: HaCaT cells; 10, 25, 50 μM; UV 100 J/m^2; 4 hours
Description: as §2, §3, §4

SMILES: COc1cc(COC(=O)CCCC/C=C/C(C)C)ccc1O [capsiate]
- P38 (phosphorylation) in mouse skin tissue (P38 [1]): no significant difference
- p38 (phosphorylation) (p38 [2]): no particular change
- increment of retinal vascular permeability (Sprague dawley (SD) rats): inhibited
- level of ICAM-1 expression increased by UV irradiation (ICAM-1 (CD54)): decreased
- expression of MMP-2 (mRNA) in mouse skin tissue (MMP-2): decreased
- expression of IL-8 (mRNA) increased by UV irradiation (IL-8): significantly decreases
- level of PECAM-1 expression (PECAM-1 (CD31)): significantly lower
- expression of IL-6 (mRNA) increased by UV irradiation (IL-6): significantly decreases
